± gives the uncertainty stated by the source.
Assay: xn = mol fraction of the nth substance listed

CCCC[N+](CCCC)(CCCC)CCCC.[Cl-] + O=C(O)[C@@H]1CCCN1
100 kPa
Conditions | electrical conductivity, 313.15 K [S/m] | electrical conductivity, 323.15 K [S/m] | electrical conductivity, 333.15 K [S/m] | electrical conductivity, 343.15 K [S/m] | electrical conductivity, 353.15 K [S/m] | viscosity, 313.15 K [mPa·s] | viscosity, 323.15 K [mPa·s] | viscosity, 333.15 K [mPa·s] | viscosity, 343.15 K [mPa·s] | viscosity, 353.15 K [mPa·s]
x1 = 0.875 | 0.0343 | 0.0411 | 0.065 | 0.0965 | 0.127 | 389 ± 41 | 172 ± 18 | 97.5 ± 9.9 | 54.2 ± 5.5 | 32.1 ± 3.2
x1 = 0.8889 | 0.0137 | 0.0249 | 0.0423 | 0.0735 | 0.108 | 901 ± 96 | 306 ± 32 | 171 ± 17 | 85 ± 9 | 53.8 ± 5.4
x1 = 0.9 | 0.0446 | 0.0612 | 0.0869 | 0.11 | 0.142 | 1051 ± 110 | 534 ± 56 | 233 ± 24 | 131 ± 13 | 77.3 ± 7.8

CC[n+]1ccccc1.O=S(=O)([O-])C(F)(F)F + O
101 kPa
Conditions | viscosity [mPa·s]
293.15 K, x1 = 0.067 | 2.47 ± 0.15
298.15 K, x1 = 0.067 | 2.16 ± 0.13
298.15 K, x1 = 0.498 | 15.04 ± 0.91
313.15 K, x1 = 0.689 | 17.4 ± 1
343.15 K, x1 = 0.689 | 8.42 ± 0.51
353.15 K, x1 = 0.893 | 10.74 ± 0.65

CS(C)=O + COCCCC[n+]1ccn(C)c1.NCC(=O)[O-]
Conditions | viscosity [mPa·s]
308.15 K, 100 kPa, x2 = 0 | 1.65 ± 0.02

CCCCCCCCCCCC[N+](C)(C)Cc1ccccc1.[Cl-] + C[C@H](N)C(=O)O + O
electrical conductivity [S/m], 101 kPa
Conditions | 293.15 K | 298.15 K | 303.15 K | 308.15 K
x2 = 0.0009017, x1 = 0.000273 | 0.0801 ± 0.0051 | 0.0901 ± 0.0056 | 0.101 ± 0.0062 | 0.112 ± 0.0069
x2 = 0.0009017, x1 = 0.0002923 | 0.0832 ± 0.0053 | 0.0935 ± 0.0058 | 0.104 ± 0.0065 | 0.117 ± 0.0072
x2 = 0.0009017, x1 = 0.00031 | 0.0859 ± 0.0054 | 0.0967 ± 0.006 | 0.108 ± 0.0067 | 0.121 ± 0.0074
x2 = 0.0009017, x1 = 0.0003245 | 0.0882 ± 0.0056 | 0.0994 ± 0.0062 | 0.111 ± 0.0069 | 0.124 ± 0.0076
x2 = 0.0009018, x1 = 0.0001745 | 0.0636 ± 0.004 | 0.0709 ± 0.0044 | 0.0786 ± 0.0049 | 0.0867 ± 0.0053
x2 = 0.0009018, x1 = 0.0002014 | 0.0686 ± 0.0043 | 0.0767 ± 0.0048 | 0.0852 ± 0.0053 | 0.0943 ± 0.0058
x2 = 0.0009018, x1 = 0.0002282 | 0.0731 ± 0.0046 | 0.0819 ± 0.0051 | 0.0911 ± 0.0056 | 0.101 ± 0.0062
x2 = 0.0009018, x1 = 0.0002515 | 0.0769 ± 0.0049 | 0.0862 ± 0.0054 | 0.096 ± 0.006 | 0.107 ± 0.0066
x2 = 0.0009019, x1 = 5.732e-05 | 0.0227 ± 0.0014 | 0.0255 ± 0.0016 | 0.0283 ± 0.0018 | 0.0312 ± 0.002
x2 = 0.0009019, x1 = 7.956e-05 | 0.0312 ± 0.002 | 0.0349 ± 0.0022 | 0.0388 ± 0.0024 | 0.0427 ± 0.0027
x2 = 0.0009019, x1 = 0.0001004 | 0.0389 ± 0.0025 | 0.0437 ± 0.0027 | 0.0484 ± 0.003 | 0.0533 ± 0.0033
x2 = 0.0009019, x1 = 0.0001231 | 0.0474 ± 0.003 | 0.053 ± 0.0033 | 0.0588 ± 0.0037 | 0.0647 ± 0.004
x2 = 0.0009019, x1 = 0.0001486 | 0.0565 ± 0.0036 | 0.0633 ± 0.004 | 0.0701 ± 0.0044 | 0.077 ± 0.0048
x2 = 0.001773, x1 = 8.528e-05 | 0.033 ± 0.0021 | 0.037 ± 0.0023 | 0.041 ± 0.0026 | 0.0452 ± 0.0029
x2 = 0.001773, x1 = 0.0001054 | 0.0404 ± 0.0025 | 0.0453 ± 0.0029 | 0.0502 ± 0.0032 | 0.0553 ± 0.0035
x2 = 0.001773, x1 = 0.0001263 | 0.0481 ± 0.003 | 0.0538 ± 0.0034 | 0.0597 ± 0.0038 | 0.0658 ± 0.0042
x2 = 0.001773, x1 = 0.00015 | 0.0564 ± 0.0035 | 0.063 ± 0.0039 | 0.0698 ± 0.0043 | 0.077 ± 0.0048
x2 = 0.001773, x1 = 0.000176 | 0.063 ± 0.004 | 0.0702 ± 0.0044 | 0.0778 ± 0.0048 | 0.086 ± 0.0053
x2 = 0.001773, x1 = 0.0002016 | 0.0678 ± 0.0043 | 0.0756 ± 0.0047 | 0.084 ± 0.0052 | 0.0932 ± 0.0057
x2 = 0.001773, x1 = 0.0002266 | 0.0719 ± 0.0046 | 0.0805 ± 0.005 | 0.0896 ± 0.0055 | 0.0995 ± 0.0061
x2 = 0.001773, x1 = 0.0002493 | 0.0756 ± 0.0048 | 0.0847 ± 0.0053 | 0.0946 ± 0.0058 | 0.105 ± 0.0065
x2 = 0.001773, x1 = 0.0002699 | 0.0789 ± 0.005 | 0.0885 ± 0.0055 | 0.099 ± 0.0061 | –
x2 = 0.001773, x1 = 0.0002888 | 0.082 ± 0.0052 | 0.0924 ± 0.0057 | 0.103 ± 0.0064 | –
x2 = 0.001773, x1 = 0.0003053 | 0.0849 ± 0.0053 | 0.0956 ± 0.006 | 0.107 ± 0.0066 | –
x2 = 0.001773, x1 = 0.0003178 | 0.0873 ± 0.0055 | 0.0979 ± 0.0061 | 0.11 ± 0.0068 | –
x2 = 0.001774, x1 = 6.278e-05 | 0.0246 ± 0.0016 | 0.0276 ± 0.0017 | 0.0306 ± 0.0019 | 0.0337 ± 0.0022
